In paper PMC7561186, “Rational design of balanced dual-targeting antibiotics with limited resistance” (PLoS Biology, 2020):
In brackets after ≈: the same amount, converted by molar mass. Like-named read-outs stand apart in the source and are kept apart here.

Key:
[1] = system: S. aureus clinical isolates; experiment: microbe, parasite or virus in culture; type: cell-based; details: Staphylococcus aureus, read-out: MIC
Enterococcus faecium = experiment: MIC, broth microdilution (CLSI); type: cell-based
Protocol: (§1) MICs were determined using a standard serial broth microdilution technique according to the CLSI guidelines. Briefly, bacterial strains were inoculated onto MHBII agar plates and were grown overnight at 37 °C. Next, 3 individual colonies from each strain were inoculated into 1 mL MHBII medium and propagated at 37 °C, 250 rpm overnight. In the cases of Enterococcus and Streptococcus sp., cells were plated to BHI agar plates, and BHI broth was used to determine MICs. […] Following dilutions, each well was seeded with 5×10^4 bacterial cells. All measurements were performed in 3 parallel replicates and to avoid possible edge effects in microwell plates, side rows (A and H) were filled with sterile medium. Following inoculations, plates were covered with lids and wrapped in polyethylene plastic bags to minimize evaporation but allow for O2 transfer. Plates were incubated at 37 °C under continuous shaking at 150 rpm for 18 hours. After incubation, OD600 of each well was measured using a BioTek Synergy 2 microplate reader.

Enterococcus faecalis = experiment: MIC, broth microdilution (CLSI); type: cell-based; details: Enterococcus faecalis ATCC 29212
Protocol: as §1

Streptococcus pyogenes = experiment: MIC, broth microdilution (CLSI); type: cell-based
Protocol: as §1

Pseudomonas aeruginosa = experiment: MIC, broth microdilution (CLSI); type: cell-based
Protocol: as §1

Shigella flexneri = experiment: MIC, broth microdilution (CLSI); type: cell-based
Protocol: as §1

Escherichia coli = experiment: MIC, broth microdilution (CLSI); type: cell-based; details: Escherichia coli ATCC 25922
Protocol: as §1

Haemophilus influenzae = experiment: MIC, broth microdilution (CLSI); type: cell-based
Protocol: as §1

CHO-K1 cells = type: cell-based, hamster; details: for % Micronucleated cells / Micronucleus Test Result: 4 hours, CHO-K1
Protocol: Genetic toxicity analysis of compounds was performed in an in vitro micronucleus test, according to the protocol described in Diaz and colleagues (2007), at Eurofins Panlabs (St. Charles, MO, US). Micronucleated cells and micronuclei were enumerated by the use of high-content fluorescent cell imaging. The assay was performed on CHO-K1 cells. […] Experiments were performed in 2 biological replicates. All cell lines were tested as being negative for Mycoplasma contamination.

Cc1[nH]c(C(=O)Nc2nc3c(OCc4ccccc4)cc(C(=O)O)cc3s2)c(Cl)c1Cl [ULD2]
MIC ([1]; MSSA / NRS 14 / VISA, S. aureus IHMA 1308246, NRS14, MSSA / VISA): 1 µg/mL (≈ 2.1 µM) | MIC ([1]; MSSA / NRS 17 / VISA, S. aureus IHMA 1308247, NRS17, MSSA / VISA): 1 µg/mL (≈ 2.1 µM) | MIC ([1]; MSSA / NRS 28 / VISA, S. aureus IHMA 1308249, NRS28, MSSA / VISA): 1 µg/mL (≈ 2.1 µM) | MIC ([1]; MSSA / NRS 52, S. aureus IHMA 1308252, NRS52, MSSA / VSSA* (*Expected VAN intermediate, confirmed VAN susceptible twice), test date 2018-11-07): 0.12 µg/mL (≈ 0.252 µM) | MIC ([1]; MSSA / USA100 / VRSA, S. aureus IHMA 672236, VRS6, MSSA / VRSA, USA100): 0.12 µg/mL (≈ 0.252 µM) | MIC ([1]; MSSA, S. aureus IHMA 1563826, MSSA / VSSA): 0.25 µg/mL (≈ 0.525 µM) | MIC ([1]; MSSA, S. aureus IHMA 1565492, MSSA / VSSA): 0.12 µg/mL (≈ 0.252 µM) | MIC ([1]; MSSA, S. aureus IHMA 1569499, MSSA / VSSA): 0.5 µg/mL (≈ 1.05 µM) | MIC ([1]; MSSA, S. aureus IHMA 1569754, MSSA / VSSA): 0.12 µg/mL (≈ 0.252 µM) | MIC ([1]; MSSA, S. aureus IHMA 1574202, MSSA / VSSA): 0.25 µg/mL (≈ 0.525 µM) | MIC ([1]; MSSA, S. aureus IHMA 1575652, MSSA / VSSA): 0.25 µg/mL (≈ 0.525 µM) | MIC ([1]; MSSA, S. aureus IHMA 1575779, MSSA / VSSA): 0.5 µg/mL (≈ 1.05 µM) | MIC ([1]; MSSA, S. aureus IHMA 1576329, MSSA / VSSA): 0.5 µg/mL (≈ 1.05 µM) | MIC ([1]; MSSA, S. aureus IHMA 1577800, MSSA / VSSA): 0.25 µg/mL (≈ 0.525 µM) | MIC ([1]; MSSA, S. aureus IHMA 1578560, MSSA / VSSA): 0.5 µg/mL (≈ 1.05 µM) | MIC ([1]; MSSA, S. aureus IHMA 1580233, MSSA / VSSA): 0.12 µg/mL (≈ 0.252 µM) | MIC ([1]; MSSA, S. aureus IHMA 1580925, MSSA / VSSA): 0.25 µg/mL (≈ 0.525 µM) | MIC ([1]; MSSA, S. aureus IHMA 1580955, MSSA / VSSA): 0.5 µg/mL (≈ 1.05 µM) | MIC ([1]; MSSA, S. aureus IHMA 1582586, MSSA / VSSA): 0.5 µg/mL (≈ 1.05 µM) | MIC ([1]; MSSA, S. aureus IHMA 1582691, MSSA / VSSA): 0.25 µg/mL (≈ 0.525 µM) | MIC ([1]; MSSA, S. aureus IHMA 1584230, MSSA / VSSA): 0.5 µg/mL (≈ 1.05 µM) | MIC ([1]; MSSA, S. aureus IHMA 1587279, MSSA / VSSA): 0.5 µg/mL (≈ 1.05 µM) | MIC ([1]; MSSA, S. aureus IHMA 1591459, MSSA / VSSA): 0.25 µg/mL (≈ 0.525 µM) | MIC ([1]; MSSA, S. aureus IHMA 1592749, MSSA / VSSA): 0.5 µg/mL (≈ 1.05 µM) | MIC ([1]; MSSA, S. aureus IHMA 1592751, MSSA / VSSA): 0.25 µg/mL (≈ 0.525 µM) | MIC ([1]; MSSA, S. aureus IHMA 1594297, MSSA / VSSA): 1 µg/mL (≈ 2.1 µM) | MIC ([1]; MSSA, S. aureus IHMA 1597120, MSSA / VSSA): 0.5 µg/mL (≈ 1.05 µM) | MIC ([1]; MSSA, S. aureus IHMA 1597125, MSSA / VSSA): 0.5 µg/mL (≈ 1.05 µM) | MIC ([1]; MSSA, S. aureus IHMA 1599157, MSSA / VSSA): 0.5 µg/mL (≈ 1.05 µM) | MIC ([1]; MSSA, S. aureus IHMA 1599506, MSSA / VSSA): 0.12 µg/mL (≈ 0.252 µM) | MIC ([1]; MSSA, S. aureus IHMA 1602078, MSSA / VSSA): 0.5 µg/mL (≈ 1.05 µM) | MIC ([1]; MSSA, S. aureus IHMA 1604586, MSSA / VSSA): 0.25 µg/mL (≈ 0.525 µM) | MIC ([1]; MSSA, S. aureus IHMA 1604609, MSSA / VSSA): 0.5 µg/mL (≈ 1.05 µM) | MIC ([1]; MSSA, S. aureus IHMA 1609919, MSSA / VSSA): 0.25 µg/mL (≈ 0.525 µM) | MIC ([1]; MSSA, S. aureus IHMA 1622864, MSSA / VSSA): 0.25 µg/mL (≈ 0.525 µM) | MIC ([1]; MSSA, S. aureus IHMA 1626392, MSSA / VSSA): 0.5 µg/mL (≈ 1.05 µM) | MIC ([1]; MSSA, S. aureus IHMA 1713793, MSSA / VSSA): 0.5 µg/mL (≈ 1.05 µM) | MIC (Enterococcus faecium; Enterococcus faecium ATCC 19434): 0.5 µg/mL | MIC (Enterococcus faecium; Enterococcus faecium ATCC 700221, VRE (VanA+)): 0.0625 µg/mL | MIC (Enterococcus faecium; Enterococcus faecium CCUG 56858, VRE (VanB+)): 0.25 µg/mL | MIC (Enterococcus faecalis): < 0.0312 µg/mL | MIC (Streptococcus pyogenes; Streptococcus pyogenes ATCC 14289): 0.25 µg/mL | MIC (Streptococcus pyogenes; Streptococcus pyogenes ATCC 19615): 0.125 µg/mL | MIC (Pseudomonas aeruginosa; ATCC27853, Pseudomonas aeruginosa ATCC 27853): 2 µg/mL | MIC (Pseudomonas aeruginosa; Pseudomonas aeruginosa ATCC 27853): 2 µg/mL | MIC (Pseudomonas aeruginosa; Pseudomonas aeruginosa B3-1811, Ciprofloxacin-R, Cephalosporin-R): 16 µg/mL | MIC (Shigella flexneri; Shigella flexneri 668): 16 µg/mL | MIC (Shigella flexneri; Shigella flexneri HNCMB 20018): 8 µg/mL | MIC (Escherichia coli): 16 µg/mL | MIC (Haemophilus influenzae; ATCC49247, Haemophilus influenzae ATCC 49247): 0.125 µg/mL | MIC (Haemophilus influenzae; Haemophilus influenzae ATCC 35056): 1 µg/mL | MIC (Haemophilus influenzae; Haemophilus influenzae ATCC 49247): 0.125 µg/mL | % Micronucleated cells (CHO-K1 cells; 1.3 x 10^-4 M): 1.07% | Micronucleus Test Result (CHO-K1 cells; 1.3 x 10^-4 M): - (A negative test (-) result indicates P > 0.05 by t-test and percentage of micronucleated cells less than 2-fold higher than the background level) | % Micronucleated cells (CHO-K1 cells; 2.5 x 10^-4 M): 1.36% | Micronucleus Test Result (CHO-K1 cells; 2.5 x 10^-4 M): - (A negative test (-) result indicates P > 0.05 by t-test and percentage of micronucleated cells less than 2-fold higher than the background level) | % Micronucleated cells (CHO-K1 cells; 3.1 x 10^-5 M): 0.57% | Micronucleus Test Result (CHO-K1 cells; 3.1 x 10^-5 M): - (A negative test (-) result indicates P > 0.05 by t-test and percentage of micronucleated cells less than 2-fold higher than the background level) | % Micronucleated cells (CHO-K1 cells; 5.0 x 10^-4 M): 0.78% | Micronucleus Test Result (CHO-K1 cells; 5.0 x 10^-4 M): - (A negative test (-) result indicates P > 0.05 by t-test and percentage of micronucleated cells less than 2-fold higher than the background level) | % Micronucleated cells (CHO-K1 cells; 6.2 x 10^-5 M): 0.49% | Micronucleus Test Result (CHO-K1 cells; 6.2 x 10^-5 M): - (A negative test (-) result indicates P > 0.05 by t-test and percentage of micronucleated cells less than 2-fold higher than the background level) | genetic toxicity (CHO-K1 cells; CHO-K1 micronucleus assay, in words): No genetic toxicity
